Legend:
[1] = target: Protein kinase C delta type (Homo sapiens, UniProt Q05655); assay: Binding affinity for isolated C1b domain of protein kinase C-delta
[2] = Binding affinity for protein kinase C-alpha C1a and C1b domains

Chain of Protein kinase C delta type (Q05655 whole entry, the tested form may be a part): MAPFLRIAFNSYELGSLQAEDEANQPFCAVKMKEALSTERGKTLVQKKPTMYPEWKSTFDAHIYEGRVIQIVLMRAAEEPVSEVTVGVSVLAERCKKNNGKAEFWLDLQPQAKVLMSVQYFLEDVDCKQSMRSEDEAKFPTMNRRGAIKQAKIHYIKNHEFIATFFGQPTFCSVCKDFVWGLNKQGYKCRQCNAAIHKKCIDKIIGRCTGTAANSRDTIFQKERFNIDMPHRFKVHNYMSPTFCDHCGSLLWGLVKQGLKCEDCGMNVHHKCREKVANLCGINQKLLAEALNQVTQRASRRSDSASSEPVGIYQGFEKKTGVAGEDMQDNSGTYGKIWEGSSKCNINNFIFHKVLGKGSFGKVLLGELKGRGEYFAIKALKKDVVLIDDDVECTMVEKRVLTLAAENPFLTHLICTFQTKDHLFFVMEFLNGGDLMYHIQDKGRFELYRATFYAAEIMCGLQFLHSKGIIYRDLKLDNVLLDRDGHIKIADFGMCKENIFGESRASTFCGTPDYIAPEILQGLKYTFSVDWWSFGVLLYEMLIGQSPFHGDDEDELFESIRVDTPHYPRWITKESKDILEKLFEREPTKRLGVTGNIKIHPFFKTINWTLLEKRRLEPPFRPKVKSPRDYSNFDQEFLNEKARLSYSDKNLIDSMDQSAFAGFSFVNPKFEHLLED

SMILES | Ki [1] | Ki [2]
CC(C)C(C/C=C1/C(=O)OC(CO)(COC(=O)C(C)(C)C)C1(C)C)C(C)C (stereo not drawn) | 3470 nM | 
CC(C)C(C/C=C1\CC(CO)(COC(=O)C(C)(C)C)OC1=O)C(C)C (stereo not drawn) |  | 11.2 nM
CC(C)CC(C/C=C1\CC(CO)(COC(=O)C(C)(C)C)OC1=O)CC(C)C (stereo not drawn) | 0.9 nM | 3.25 nM
CC(C)C(C/C=C1/CC(CO)(COC(=O)C(C)(C)C)OC1=O)C(C)C (stereo not drawn) |  | 8.32 nM
CC(C)C(C/C=C1\C(=O)OC(CO)(COC(=O)C(C)(C)C)C1(C)C)C(C)C (stereo not drawn) | 1460 nM | 
CC(C)CC(C/C=C1/CC(CO)(COC(=O)C(C)(C)C)OC1=O)CC(C)C (stereo not drawn) | 1.16 nM | 2.9 nM

Reference: ChEMBL document CHEMBL1138760, “Conformationally constrained analogues of diacylglycerol (DAG). 23. Hydrophobic ligand-protein interactions versus ligand-lipid interactions of DAG-lactones with protein kinase C (PK-C)” (J Med Chem, 2004)
